A word on the IC50: it is the concentration that inhibits the measured activity by half.

Structures are written as SMILES.

Consider 25 compounds from patent publication US20240327412A1, “FACTOR XIIA INHIBITORS” (KALVISTA PHARMACEUTICALS LIMITED, priority 2021, published 2024).

For this experiment, the target named is T1, Human Factor XIIa (Homo sapiens, UniProt P00748).
T1 construct: Proteolytic cleavage of FXII to heavy and light chains of FXIIa dramatically increases catalytic activity; purchased Enzyme Research Laboratories
T1 sequence (P00748 373-615 limits assumed): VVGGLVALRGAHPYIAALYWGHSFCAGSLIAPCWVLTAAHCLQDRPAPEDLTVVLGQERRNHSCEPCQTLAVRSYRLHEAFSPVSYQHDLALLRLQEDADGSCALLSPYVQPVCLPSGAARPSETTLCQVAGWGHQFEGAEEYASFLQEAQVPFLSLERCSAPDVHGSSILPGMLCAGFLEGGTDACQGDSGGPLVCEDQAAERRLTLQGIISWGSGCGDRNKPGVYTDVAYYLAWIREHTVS
T1 sequence (P00748 20-372 partner limits assumed): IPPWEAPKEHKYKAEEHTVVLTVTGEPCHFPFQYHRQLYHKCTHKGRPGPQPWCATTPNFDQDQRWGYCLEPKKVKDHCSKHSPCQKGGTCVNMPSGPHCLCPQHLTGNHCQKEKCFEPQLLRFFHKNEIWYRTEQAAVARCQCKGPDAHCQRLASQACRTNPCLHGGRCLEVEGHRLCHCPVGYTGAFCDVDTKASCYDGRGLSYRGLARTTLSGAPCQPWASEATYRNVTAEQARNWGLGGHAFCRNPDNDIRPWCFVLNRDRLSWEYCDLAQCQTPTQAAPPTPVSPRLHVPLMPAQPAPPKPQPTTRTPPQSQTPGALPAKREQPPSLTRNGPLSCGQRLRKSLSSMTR
Kind of experiment: Determination of FXIIa inhibition (fluorogenic substrate H-DPro-Phe-Arg-AFC, IC50 assay). Type of experiment: biochemical. Particulars: substrate at Km concentration, 25° C.; category scale; read-out: Human FXII IC50 (nm). The procedure: In vitro inhibition of Factor XIIa was determined using an IC50 assay based on standard literature methods (see e.g Baeriswyl et al., ACS Chem. Biol., 2015, 10 (8) 1861; Bouckaert et al., European Journal of Medicinal Chemistry 110 (2016) 181). Human Factor XIIa (Enzyme Research Laboratories) was incubated at 25° C. with the fluorogenic substrate H-DPro-Phe-Arg-AFC (Peptide Protein Science) and various concentrations of the test compound. Protease activity was measured by monitoring the accumulation of liberated fluorescence from the substrate over 5 min at 25° C. The linear rate of fluorescence increase per minute was expressed as percentage (%) activity. The Km for the cleavage of the substrate by FXIIa was determined by standard transformation of the Michaelis-Menten equation. The compound inhibitor assays were performed at substrate Km concentration. IC50 values were calculated as the concentration of inhibitor giving 50% inhibition (IC50) of the uninhibited enzyme activity (100%).
Consider `Cn1ccc(OCC23CC(CNc4cccc5c(N)nccc45)(CN2C(=O)CCc2ccccc2)C3)cc1=O` [Example 13008, 4-((4-(((1-aminoisoquinolin-5-yl)amino)methyl)-2-(3-phenylpropanoyl)-2-azabicyclo[2.1.1]hexan-1-yl)methoxy)-1-methylpyridin-2(1H)-one], for which the IC50 fell in the range of 300 to 1000 nM.

In the case of `Cn1ccc(OCC23CN(C(=O)OCc4ccc(F)c(F)c4)C(CNc4cccc5c(N)nccc45)(C2)C3)cc1=O` [Example 12020, 3,4-difluorobenzyl 1-(((1-aminoisoquinolin-5-yl)amino)methyl)-4-(((1-methyl-2-oxo-1,2-dihydropyridin-4-yl)oxy)methyl)-2-azabicyclo[2.1.1]hexane-2-carboxylate], the IC50 was in the range of 100 to 300 nM.

Regarding `Nc1nccc2c(NCC34CC(COc5ccc6c(c5)CNC6=O)(CCO3)C4)cccc12` [Example 10931, 5-((1-(((1-aminoisoquinolin-5-yl)amino)methyl)-2-oxabicyclo[3.1.1]heptan-5-yl)methoxy)isoindolin-1-one], the IC50 is 10 to 100 nM.

In the case of `Cn1ccc(OCC23CN(C(=O)Cc4cccc5[nH]ccc45)C(CNc4cccc5c(N)nccc45)(C2)C3)cc1=O` [Example 12040, 4-((2-(2-(1H-indol-4-yl)acetyl)-1-(((1-aminoisoquinolin-5-yl)amino)methyl)-2-azabicyclo[2.1.1]hexan-4-yl)methoxy)-1-methylpyridin-2(1H)-one], the IC50 lay within 10 to 100 nM.

Take `COc1ccc(C(=O)N2CC3(COc4ccn(C)c(=O)c4)CC2(CNc2cccc4c(N)nccc24)C3)cc1` [Example 12071, 4-((1-(((1-aminoisoquinolin-5-yl)amino)methyl)-2-(4-methoxybenzoyl)-2-azabicyclo[2.1.1]hexan-4-yl)methoxy)-1-methylpyridin-2(1H)-one]: the IC50 lay within 10 to 100 nM.

As for `Cn1ccc(OCC23CN(C(=O)Nc4ccccc4F)C(CNc4cccc5c(N)nccc45)(C2)C3)cc1=O` [Example 12068, 1-(((1-aminoisoquinolin-5-yl)amino)methyl)-N-(2-fluorophenyl)-4-(((1-methyl-2-oxo-1,2-dihydropyridin-4-yl)oxy)methyl)-2-azabicyclo[2.1.1]hexane-2-carboxamide], the IC50 lay in the range of 1 to 10 nM.

As to `Cn1ccc(OCC23CN(C(=O)OCc4cccnc4)C(CNc4cccc5c(N)nccc45)(C2)C3)cc1=O` [Example 12022, pyridin-3-ylmethyl 1-(((1-aminoisoquinolin-5-yl)amino)methyl)-4-(((1-methyl-2-oxo-1,2-dihydropyridin-4-yl)oxy)methyl)-2-azabicyclo[2.1.1]hexane-2-carboxylate], the IC50 fell in the range of 10 to 100 nM.

As to `Nc1nccc2c(NCC34CC(Cn5cccn5)(CO3)C4)cccc12` [Example 6645, N5-((4-((1H-pyrazol-1-yl)methyl)-2-oxabicyclo[2.1.1]hexan-1-yl)methyl)isoquinoline-1,5-diamine], the IC50 lay in the range of 10000 to 40000 nM.

On to `Cn1ccc(OCC23CC(CNc4cccc5c(N)nccc45)(CN2C(=O)OCc2ccccn2)C3)cc1=O` [Example 13013, pyridin-2-ylmethyl 4-(((1-aminoisoquinolin-5-yl)amino)methyl)-1-(((1-methyl-2-oxo-1,2-dihydropyridin-4-yl)oxy)methyl)-2-azabicyclo[2.1.1]hexane-2-carboxylate], for which the 50% inhibitory concentration (IC50) is 100 to 300 nM.

As for `Cn1ccc(OCC23CC(CNc4cccc5c(N)nccc45)(CN2c2nc4ccccc4o2)C3)cc1=O` [Example 13018, 4-[[4-[[(1-aminoisoquinolin-5-yl)amino]methyl]-2-(1,3-benzoxazol-2-yl)-2-azabicyclo[2.1.1]hexan-1-yl]methoxy]-1-methylpyridin-2-one], the IC50 was in the range of 300 to 1000 nM.

As to `Nc1nccc2c(NCC34CC(COc5ccn6nncc6c5)(CCO3)C4)cccc12` [Example 10969, N5-((5-(([1,2,3]triazolo[1,5-a]pyridin-5-yloxy)methyl)-2-oxabicyclo[3.1.1]heptan-1-yl)methyl)isoquinoline-1,5-diamine], the IC50 lay within 1000 to 3000 nM.

For the compound `Nc1nccc2c(NCC34CC(Cn5nccn5)(CO3)C4)cccc12` [Example 6647, N5-((4-((2H-1,2,3-triazol-2-yl)methyl)-2-oxabicyclo[2.1.1]hexan-1-yl)methyl)isoquinoline-1,5-diamine], the IC50 is 40000 to 100000 nM.

As for `Cc1cc(OCC23CCOC(CNc4cccc5c(N)nccc45)(C2)C3)ccn1` [Example 10953, N5-((5-(((2-methylpyridin-4-yl)oxy)methyl)-2-oxabicyclo[3.1.1]heptan-1-yl)methyl)isoquinoline-1,5-diamine], the IC50 fell in the range of 100 to 300 nM.

With `Nc1nccc2c(NCC34CC(COc5ccc6ncc(F)n6c5)(CO3)C4)cccc12` [Example 6625, N5-((4-(((3-fluoroimidazo[1,2-a]pyridin-6-yl)oxy)methyl)-2-oxabicyclo[2.1.1]hexan-1-yl)methyl)isoquinoline-1,5-diamine], the IC50 lay in the range of 300 to 1000 nM.

For `Cn1cc(COC(=O)N2CC3(CNc4cccc5c(N)nccc45)CC2(COc2ccn(C)c(=O)c2)C3)cn1` [Example 13022, (1-methyl-1H-pyrazol-4-yl)methyl 4-(((1-aminoisoquinolin-5-yl)amino)methyl)-1-(((1-methyl-2-oxo-1,2-dihydropyridin-4-yl)oxy)methyl)-2-azabicyclo[2.1.1]hexane-2-carboxylate], the IC50 lay within 10 to 100 nM.

With `Nc1nccc2c(NCC34CC(COc5ccc6c(c5)C(=O)NC6)(CCO3)C4)cccc12` [Example 10941, 6-((1-(((1-aminoisoquinolin-5-yl)amino)methyl)-2-oxabicyclo[3.1.1]heptan-5-yl)methoxy)isoindolin-1-one], the IC50 was 300 to 1000 nM.

`Cc1cn(C)c(=O)nc1OCC12CCOC(CNc3cccc4c(N)nccc34)(C1)C2` [Example 10962, 4-((1-(((1-aminoisoquinolin-5-yl)amino)methyl)-2-oxabicyclo[3.1.1]heptan-5-yl)methoxy)-1,5-dimethylpyrimidin-2(1H)-one]: the IC50 was 1000 to 3000 nM.

For the compound `Cc1ccc(OCC23CCOC(CNc4cccc5c(N)nccc45)(C2)C3)nc1` [Example 10956, N5-((5-(((5-methylpyridin-2-yl)oxy)methyl)-2-oxabicyclo[3.1.1]heptan-1-yl)methyl)isoquinoline-1,5-diamine], the IC50 lay within 1000 to 3000 nM.

On to `Nc1nccc2c(NCC34CC(COc5cccnc5)(CCO3)C4)cccc12` [Example 10968, N5-((5-((pyridin-3-yloxy)methyl)-2-oxabicyclo[3.1.1]heptan-1-yl)methyl)isoquinoline-1,5-diamine], for which the IC50 lay within 3000 to 10000 nM.

Consider `Cn1ccc(OCC23CN(C(=O)CCc4cccc(C(=O)O)c4)C(CNc4cccc5c(N)nccc45)(C2)C3)cc1=O` [Example 12051, 3-(3-(1-(((1-aminoisoquinolin-5-yl)amino)methyl)-4-(((1-methyl-2-oxo-1,2-dihydropyridin-4-yl)oxy)methyl)-2-azabicyclo[2.1.1]hexan-2-yl)-3-oxopropyl)benzoic acid], for which the IC50 is 10 to 100 nM.

With `Nc1nccc2c(NCC34CC(CN5C(=O)c6ccc(O)cc6C5=O)(CO3)C4)cccc12` [Example 6635, 2-((1-(((1-aminoisoquinolin-5-yl)amino)methyl)-2-oxabicyclo[2.1.1]hexan-4-yl)methyl)-5-hydroxyisoindoline-1,3-dione], the IC50 fell in the range of 10000 to 40000 nM.

On to `Cn1ccc(OCC23CNC(CNc4ccc5c(N)nccc5c4)(C2)C3)cc1=O` [Example 12011, 4-((1-(((1-aminoisoquinolin-6-yl)amino)methyl)-2-azabicyclo[2.1.1]hexan-4-yl)methoxy)-1-methylpyridin-2(1H)-one], for which the IC50 was 300 to 1000 nM.

Regarding `Nc1nccc2c(NCC34CC(COc5ccc6c(c5)CNC6=O)(C3)C4)cccc12` [Example 1133, 5-((3-(((1-aminoisoquinolin-5-yl)amino)methyl)bicyclo[1.1.1]pentan-1-yl)methoxy)isoindolin-1-one], the IC50 lay in the range of 100 to 300 nM.

As for `CN1Cc2ccc(OCC34CN(C(=O)OCc5ccccc5)C(CNc5cccc6c(N)nccc56)(C3)C4)cc2C1=O` [Example 12012, benzyl 1-(((1-aminoisoquinolin-5-yl)amino)methyl)-4-(((2-methyl-3-oxoisoindolin-5-yl)oxy)methyl)-2-azabicyclo[2.1.1]hexane-2-carboxylate], the IC50 fell in the range of 100 to 300 nM.

With `Cn1ccc(OCC23CN(C(=O)c4ccccc4)C(CNc4cccc5c(N)nccc45)(C2)C3)cc1=O` [Example 12035, 4-((1-(((1-aminoisoquinolin-5-yl)amino)methyl)-2-benzoyl-2-azabicyclo[2.1.1]hexan-4-yl)methoxy)-1-methylpyridin-2(1H)-one], the half-maximal inhibitory concentration (IC50) lay in the range of 10 to 100 nM.
